Values after ≈ are worked out from the molar mass of the structure shown. Where two headings read alike, the source gives them in different places.
How the values were obtained:
[1] = system: Staph. aureus Smith; test: In vivo activity (oral, iv; ED50) against Staph. aureus Smith in mice
[2] = system: E. coli; test: Range of MIC for E. coli strains; conditions: Escherichia coli
[3] = system: Staph.; test: Range of MIC for Staph. strains, including MRSA; conditions: Staphylococcus aureus
[4] = Staphylococcus aureus, in Mus musculus, po, read-out: ED50 Staph Smith SOD
[5] = iv, read-out: ED50 Staph Smith SIV
[6] = 20 h, read-out: Range of MIC, E. coli (Mouse Serum)
[7] = read-out: Range of MIC, E. coli (Water)
[8] = MRSA, read-out: Range of MIC, Staph (Mouse Serum)
[9] = MRSA, read-out: Range of MIC, Staph (Water)

| SMILES | MIC [2, 6] [µg/mL] | MIC [2, 7] [µg/mL] | MIC [3, 8] [µg/mL] | MIC [3, 9] [µg/mL] | MIC ([2]; read-out: Minimum inhibitory concentration (MIC), E. coli (Human Serum)) [µg/mL] | MIC ([3]; read-out: Minimum inhibitory concentration (MIC), Staph (Human Serum)) [µg/mL] | MIC ([3]; read-out: Minimum inhibitory concentration (MIC), Staph (Water)) [µg/mL] | MIC ([2]; read-out: Range of MIC, E. coli (mouse serum)) [µg/mL] | MIC ([2]; read-out: Range of MIC, E. coli (water)) [µg/mL] | MIC ([3]; MRSA, read-out: Range of MIC, Staph. (mouse serum)) [µg/mL] | MIC ([3]; MRSA, read-out: Range of MIC, Staph. (water)) [µg/mL] | ED50 [1, 4] [mg/kg] | ED50 [1, 5] [mg/kg] |
| --- | --- | --- | --- | --- | --- | --- | --- | --- | --- | --- | --- | --- | --- |
| CN(C)c1cc(NC(=O)CN(C(=O)OCOC(=O)c2c(F)cccc2F)C(C)(C)C)c(O)c2c1C[C@H]1C[C@H]3[C@H](N(C)C)C(O)=C(C(N)=O)C(=O)[C@@]3(O)C(O)=C1C2=O [Example 90, ({[(2-{[(5aR,6aS,7S,10aS)-9-(aminocarbonyl)-4,7-bis(dimethylamino)-1,8,10a,11-tetrahydroxy-10,12-dioxo-5,5a,6,6a,7,10,10a,12-octahydrotetracen-2-yl]amino}-2-oxoethyl)(tert-butyl)amino]carbonyl}oxy)methyl 2,6-difluorobenzoate] | 2 to 4 (≈ 2.5 to 5 µM) | > 64 | 0.25 to 2 (≈ 0.313 to 2.5 µM) | 1 to 16 (≈ 1.25 to 20 µM) |  |  |  |  |  |  |  | 16 to 32 | 0.5 to 1 |
| CN(C)c1cc(NC(=O)CN(C(=O)OCOC(=O)C2CC2)C(C)(C)C)c(O)c2c1C[C@H]1C[C@H]3[C@H](N(C)C)C(O)=C(C(N)=O)C(=O)[C@@]3(O)C(O)=C1C2=O [Example 56, ({[(2-{[(5aR,6aS,7S,10aS)-9-(aminocarbonyl)-4,7-bis(dimethylamino)-1,8,10a,11-tetrahydroxy-10,12-dioxo-5,5a,6,6a,7,10,10a,12-octahydrotetracen-2-yl]amino}-2-oxoethyl)(tert-butyl)amino]carbonyl}oxy)methyl cyclopropanecarboxylate] | 0.25 to 2 (≈ 0.344 to 2.75 µM) |  | 0.25 to 1 (≈ 0.344 to 1.37 µM) | 1 to 4 (≈ 1.37 to 5.5 µM) | 4 to 32 (≈ 5.5 to 44 µM) | 0.25 to 2 (≈ 0.344 to 2.75 µM) | 1 to 4 (≈ 1.37 to 5.5 µM) |  |  |  |  | > 16 | 0.79 |
| CCCN(CC(=O)Nc1cc(N(C)C)c2c(c1O)C(=O)C1=C(O)[C@]3(O)C(=O)C(C(N)=O)=C(O)[C@@H](N(C)C)[C@@H]3C[C@@H]1C2)C(=O)OCOC(=O)C12CC3CC(CC(C3)C1)C2 [Example 41, ({[(2-{[(5aR,6aS,7S,10aS)-9-(aminocarbonyl)-4,7-bis(dimethylamino)-1,8,10a,11-tetrahydroxy-10,12-dioxo-5,5a,6,6a,7,10,10a,12-octahydrotetracen-2-yl]amino}-2-oxoethyl)(propyl)amino]carbonyl}oxy)methyl adamantane-1-carboxylate] | 0.5 to 4 (≈ 0.619 to 4.95 µM) | 16 to 64 (≈ 19.8 to 79.2 µM) | 0.5 to 4 (≈ 0.619 to 4.95 µM) | 1 to 8 (≈ 1.24 to 9.9 µM) |  |  |  | 0.5 to 4 (≈ 0.619 to 4.95 µM) | 16 to 64 (≈ 19.8 to 79.2 µM) | 0.5 to 4 (≈ 0.619 to 4.95 µM) | 1 to 8 (≈ 1.24 to 9.9 µM) | 11.3 | 0.83 |

More lines, main results first:

| MIC [2, 6] [µg/mL] | MIC [2, 7] [µg/mL] | MIC [3, 8] [µg/mL] | MIC [3, 9] [µg/mL] | MIC ([2]; read-out: Minimum inhibitory concentration (MIC), E. coli (Human Serum)) [µg/mL] | MIC ([3]; read-out: Minimum inhibitory concentration (MIC), Staph (Human Serum)) [µg/mL] | MIC ([3]; read-out: Minimum inhibitory concentration (MIC), Staph (Water)) [µg/mL] | MIC ([2]; read-out: Range of MIC, E. coli (mouse serum)) [µg/mL] | MIC ([2]; read-out: Range of MIC, E. coli (water)) [µg/mL] | MIC ([3]; MRSA, read-out: Range of MIC, Staph. (mouse serum)) [µg/mL] | MIC ([3]; MRSA, read-out: Range of MIC, Staph. (water)) [µg/mL] | SMILES | ED50 [1, 4] [mg/kg] | ED50 [1, 5] [mg/kg] |
| --- | --- | --- | --- | --- | --- | --- | --- | --- | --- | --- | --- | --- | --- |
| 1 to 4 (≈ 1.24 to 4.98 µM) | 2 to 8 (≈ 2.49 to 9.95 µM) | 2 to 8 (≈ 2.49 to 9.95 µM) | 4 to 16 (≈ 4.98 to 19.9 µM) |  |  |  |  |  |  |  | CCCCN(CC(=O)Nc1cc(N(C)C)c2c(c1O)C(=O)C1=C(O)[C@]3(O)C(=O)C(C(N)=O)=C(O)[C@@H](N(C)C)C3CC1C2)C(=O)OCc1oc(=O)oc1-c1ccccc1 (stereo partly drawn) [Example 112, (2-oxo-5-phenyl-1,3-dioxol-4-yl)methyl 2-{[(7S,10aS)-9-(aminocarbonyl)-4,7-bis(dimethylamino)-1,8,10a,11-tetrahydroxy-10,12-dioxo-5,5a,6,6a,7,10,10a,12-octahydrotetracen-2-yl]amino}-2-oxoethyl(butyl)carbamate] | 6.12 | 0.48 |
| 2 to 4 (≈ 2.69 to 5.38 µM) | 4 to 32 (≈ 5.38 to 43 µM) | 1 to 4 (≈ 1.34 to 5.38 µM) | 2 to 4 (≈ 2.69 to 5.38 µM) |  |  |  |  |  |  |  | CCCN(CC(=O)Nc1cc(N(C)C)c2c(c1O)C(=O)C1=C(O)[C@]3(O)C(=O)C(C(N)=O)=C(O)[C@@H](N(C)C)[C@@H]3C[C@@H]1C2)C(=O)OCOC(=O)C(C)(C)CC [Example 37, ({[(2-{[(5aR,6aS,7S,10aS)-9-(aminocarbonyl)-4,7-bis(dimethylamino)-1,8,10a,11-tetrahydroxy-10,12-dioxo-5,5a,6,6a,7,10,10a,12-octahydrotetracen-2-yl]amino}-2-oxoethyl)(propyl)amino]carbonyl}oxy)methyl 2,2-dimethylbutanoate] | 4.1 | 0.55 |
| 0.5 to 1 (≈ 0.614 to 1.23 µM) | 8 to 16 (≈ 9.83 to 19.7 µM) | 0.5 to 2 (≈ 0.614 to 2.46 µM) | 4 to 8 (≈ 4.91 to 9.83 µM) |  |  |  |  |  |  |  | CN(C)c1cc(NC(=O)CN(C(=O)OCOC(=O)c2cccc3ccccc23)C(C)(C)C)c(O)c2c1C[C@H]1C[C@H]3[C@H](N(C)C)C(O)=C(C(N)=O)C(=O)[C@@]3(O)C(O)=C1C2=O [Example 81, ({[(2-{[(5aR,6aS,7S,10aS)-9-(aminocarbonyl)-4,7-bis(dimethylamino)-1,8,10a,11-tetrahydroxy-10,12-dioxo-5,5a,6,6a,7,10,10a,12-octahydrotetracen-2-yl]amino}-2-oxoethyl)(tert-butyl)amino]carbonyl}oxy)methyl 1-naphthoate] | 16 to 32 | > 4 |
